In patent publication US20190282600A1, “COMBINATION THERAPIES TARGETING TERT DEPENDENCY FOR CANCER THERAPY” (The Wistar Institute of Anatomy and Biology, priority 2018, published 2019):

Test system: NRAS mutant tumors (WM3000, M93-047)
Test: NRAS mutant melanoma xenograft tumors in mice
Type: in vivo
Settings: for tumor growth: 6-Thio-dG 2.5 mg/kg i.p. q.d., single agent
Procedure: FIGS. 2a to 2c show NRAS^mut melanoma cells (FIG. 2a), BRAF-V600E/NRAS mutant cells derived from melanoma patients resistant to BRAF/MEK inhibitors (FIG. 2b), or non-transformed melanocytes and fibroblasts (FIG. 2c) were treated with 6-thio-dG for 7 days. Cell viability was measured by Alamar Blue assay and calculated relative to DMSO-treated cells. […] Cell death was assessed by PSVUe staining. Percent of apoptotic cells is shown. […] Mean TRF length expressed as kilobase pairs is indicated at the bottom. […] FIG. 2g provides a bar graph showing that DNA damage was assessed by γH2AX staining. Data represent average from three independent experiments ±SEM. *p<0.05; **p<0.01; ***p<0.005 in unpaired Student's t-test. As presented in FIG. 2h, mice bearing established WM3000 or M93-047 NRAS^mut tumors were treated with vehicle control or 6-thio-dG (2.5 mg/kg i.p; q.d). Tumor volume was measured and average tumor volume (n=4) ±SEM was plotted vs. time.
FIGS. 6a to 6e provide results showing that combining 6-thio-dG and Gamitrinib inhibits the growth of 3D melanoma spheroids and NRAS-mutant xenograft tumors. Collagen-embedded melanoma spheroids were treated with DMSO, 6-thio-dG (5 μM) and Gam (5 μM) as in FIGS. 4a to 4e. On day 7, spheroids were stained with Calcein AM (live cells; green) and EtBr (dead cells; red) and imaged using an inverted microscope (4X; scale bar=250 μm). […] P values were calculated using unpaired Student's t-test. *p<0.05, ** p<0.01, ***p<0.005, when comparing vehicle control vs. combination treatment groups. […] Kaplan Meier survival curves of mice treated for 14 days. p-values were calculated by Mantel-Cox log-rank test; *p<0.05, **p<0.01, ***p<0.005. Animal weight (grams) before treatment (Start of TX) and at the end of the study (End of TX) was assessed, recorded for every mouse enrolled in the study and plotted in FIG. 6e. […] Statistical significance was assessed by unpaired Student's t-test.
All animal experiments were performed in accordance with institutional guidelines. […] Tumor growth was measured twice weekly with digital calipers. […]

Nc1nc2c(ncn2[C@H]2C[C@H](O)[C@@H](CO)O2)c(=S)[nH]1 [6-thio-dG, 6-thio-2′-deoxyguanosine]
tumor growth: slowed, but did not completely abrogated tumor growth
tumor growth (listed as 6-Thio-dG): slowed the growth of tumors
reduction in tumor volume (6-Thio-dG 2.5 mg/kg, after 14 days of treatment): approximately 50%
